These results are taken from patent US11319289B2, “5-hydroxy pyridine-based compound for use as P2X1 and P2X3 receptor antagonist and pharmaceutical composition comprising same” (GWANGJU INSTITUTE OF SCIENCE AND TECHNOLOGY, priority 2017, dated 2022).

For data set [1], the target named is T1, human P2X7 receptor (hP2X7) (Homo sapiens, UniProt Q99572).
T1 construct: expressed in transfected cells
T1 sequence (Q99572 1-595): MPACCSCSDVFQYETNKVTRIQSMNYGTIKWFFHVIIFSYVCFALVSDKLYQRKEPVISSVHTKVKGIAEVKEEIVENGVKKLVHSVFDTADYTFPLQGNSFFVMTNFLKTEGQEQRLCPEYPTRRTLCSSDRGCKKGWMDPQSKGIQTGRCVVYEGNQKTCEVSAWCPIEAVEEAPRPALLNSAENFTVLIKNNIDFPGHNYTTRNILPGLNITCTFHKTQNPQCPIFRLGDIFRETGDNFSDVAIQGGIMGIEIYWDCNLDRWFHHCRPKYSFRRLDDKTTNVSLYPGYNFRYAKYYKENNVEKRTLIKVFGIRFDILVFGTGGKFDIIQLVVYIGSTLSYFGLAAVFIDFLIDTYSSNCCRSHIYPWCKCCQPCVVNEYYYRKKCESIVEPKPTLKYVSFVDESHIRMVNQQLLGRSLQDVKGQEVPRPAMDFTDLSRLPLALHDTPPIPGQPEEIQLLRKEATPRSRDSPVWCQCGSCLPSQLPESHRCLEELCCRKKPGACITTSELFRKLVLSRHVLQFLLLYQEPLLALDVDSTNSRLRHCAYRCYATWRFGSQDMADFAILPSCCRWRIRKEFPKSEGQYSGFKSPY
Kind of data set: Ethidium bromide accumulation assay in hP2X7-expressing HEK293 cells. It counts as cell-based. As to conditions: 10 μM compound with BzATP. The essentials:
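Stably transfected hP2X7 HEK293 cells at 2.5×10^6 cells/mL in HEPES buffer (pH 7.4) with sucrose or NaCl, given 10 μM compound together with BzATP, no pre-incubation, 2 h at 37 °C. Ethidium uptake read by fluorescence (ex 530/em 590 nm), as % of BzATP-alone maximum.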

Data set [2] deals with T2, CYP2C9 (Homo sapiens, UniProt P11712).
T2 construct: purchased Invitrogen
Kind of data set: CYP inhibition assay (Vivid fluorometric), 2C9. It is filed as biochemical. As to conditions: human, recombinant human CYP2C9, pH 8; 1 μM in Table 5; read-out: CYP450 inhibition, 2C9 isozyme. On the procedure: CYP450 (1A2, 2C9, 3A4) enzyme assay was performed by a fluorometric assay using a Vivid® CYP450 screening kit (Invitrogen, USA, CA) in a 96-well black plate according to manufacturer's instructions with some modifications. The assay was performed at room temperature, and the final assay volume was 100 μL. […]
A master pre-mixture (enzyme (0.5 nmol recombinant human CYP450 enzyme)/NADP regeneration solution (333 mM glucose-6-phosphate dissolved, 30 U/mL glucose-6-phosphate dehydrogenase in 100 mM KH2PO4 solution at pH 8.0)) was prepared as a CYP450 reaction buffer (200 mM KH2PO4, pH 8.0). The master pre-mixture was added to each well of the 96 well plate, followed by the vehicle DMSO (control) and test compounds, and the mixture was preincubated for 10 minutes in the plate for background reading. Subsequently, the enzyme reaction was immediately initiated through the addition of CYP450 substrate/NADP^+ mixture. After incubation for 40 minutes, the fluorescence of the product was measured with a CHAMELEON™ multi-technology plate reader (2C9, 3A4: excitation wavelength of 530 nm and emission wavelength of 590 nm, 1A2: excitation wavelength of 415 nm and emission wavelength of 460 nm). The effect of the test compounds on CYP450 (1A2, 2C9, 3A4) was expressed as the percentage of enzyme activity.

Data set [3] in a line: Plasma protein binding by rapid equilibrium dialysis, rat. To be noted: plasma (50% in PBS), pH 7.4, read-out: Plasma protein binding rate, Rat (converted). It counts as in vitro ADME. The procedure:
Plasma protein binding was measured by rapid equilibrium dialysis (RED). A DMSO stock solution of the compounds was prepared at a concentration of 10 mM and diluted to a concentration of […] with 50% plasma in phosphate buffered saline (PBS, pH 7.4). Plasma samples (100 μL) and PBS (300 μL) were added to the sample chamber and the buffer chamber, respectively, after which the RED device was turn on and the samples were incubated in a shaking incubator at 37° C. for 4 hours. After dialysis, 50 μl aliquots were collected from each side of the chamber. 50 μl of blank plasma was added to the buffer sample, and 50 μl of PBS was also added to the plasma sample. 200 μL of acetonitrile containing an internal standard was added to each sample. The samples were centrifuged at 3200 g for 20 minutes at 4° C., and the supernatants were obtained and analyzed by an LC-MS/MS system. The plasma protein binding rate was calculated as follows: Free form (%)=(Buffer chamber/Plasma chamber)×100 Bound form (%)=100−Free form (%).

T2 sequence (P11712 whole entry): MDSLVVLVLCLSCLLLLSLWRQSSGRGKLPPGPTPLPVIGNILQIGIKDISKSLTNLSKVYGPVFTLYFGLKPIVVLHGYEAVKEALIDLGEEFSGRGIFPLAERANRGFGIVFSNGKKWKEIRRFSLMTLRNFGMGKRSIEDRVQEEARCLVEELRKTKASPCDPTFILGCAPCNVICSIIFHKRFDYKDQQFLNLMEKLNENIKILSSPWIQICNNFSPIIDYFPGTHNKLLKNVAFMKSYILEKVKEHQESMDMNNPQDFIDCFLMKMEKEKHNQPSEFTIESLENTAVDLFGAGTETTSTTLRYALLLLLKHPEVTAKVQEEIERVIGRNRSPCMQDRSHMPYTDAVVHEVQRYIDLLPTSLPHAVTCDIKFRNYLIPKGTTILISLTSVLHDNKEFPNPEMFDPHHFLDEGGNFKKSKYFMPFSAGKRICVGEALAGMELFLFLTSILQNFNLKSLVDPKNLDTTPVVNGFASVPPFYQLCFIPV

Regarding `CCCc1nc(CCc2ccc(OC)cc2)c(C(=O)O)c(C(=O)O)c1O` [Compound 13d, 5-Hydroxy-2-(4-methoxyphenethyl)-6-propylpyridine-3,4-dicarboxylic acid], the “hP2X7 % inhibition of ethidium bromide accumulation” value in data set [1] was “inactive”.

A word on the inhibition: it is the drop in the measured response relative to a control, in per cent. As to `CCCc1nc(Cc2cccc(Oc3ccccc3)c2)c(C)c(C(=O)OC)c1O` [Compound 28, Methyl 3-hydroxy-5-methyl-6-(3-phenoxybenzyl)-2-propylisonicotinate], the inhibition at 40 min, 1 µM in data set [2] was determined as 28 ± 3%. The fraction unbound at 4 h, 5 µM in data set [3] is 0.675.

In the case of `CCCc1nc(Cc2cccc(Oc3ccccc3)c2)c(C)c(C(=O)O)c1O` [Compound 29, 3-Hydroxy-5-methyl-6-(3-phenoxybenzyl)-2-propylisonicotinic acid], in data set [2], the inhibition at 40 min, 1 µM came to 26 ± 2%. In data set [1], the “hP2X7 % inhibition of ethidium bromide accumulation” value is recorded as “Inactive”. In data set [3], the fraction unbound at 4 h, 5 µM is 0.002.
